Measurements taken from patent US20220111013A1, “COMPOUND DECREASING THE CONCENTRATION OF 2-HYDROXY-GLUTARATE” (Universität Heidelberg, priority 2019, published 2022).
“Also recorded” adds a separate entry of the source. Positions of bridges follow the written chain, without caps; N, C: chain ends. No end group written: not given here.

Legend:
NRVCMs [1] = assay: 2HG induced cardiomyocyte hypertrophy in NRVCMs with AAV6 transduction; format: cell-based, rat; settings: L-2HG 2 mM, 2 days
Experimental: (§1) RNA was extracted and purified from frozen mouse heart using Trizol reagent (QIAzol lysis reagent, Qiagen) following manufacturer's instructions, followed by DnaseI digestion. Nucleic acid yields were analyzed photometrically (NanoDrop ND-1000, Spectrophotometer). 1.5 μg RNA was reverse transcribed into cDNA using Superscript III Kit (Invitrogen) and oligo(dT) Primers. cDNA synthesis was followed by RNA digestion using RNase H. qRT-PCR was executed using iTaq Universal SYBR Green Supermix (Thermo Fisher Scientific) and CFX96 Touch Real-Time PCR detection system (Bio Rad) as previously described (Doehner 2014). The following primers used for cDNA relative quantification are listed below.
In additional experiments, NRVCMs were transduced with AAV6 vectors, either overexpressing L2HGDH or luciferase (Luc) as control at the M01=10^5 vp/cell. Three days after transduction L-2HG (Sigma-Aldrich) was applied to cell culture medium to a final concentration of 2 mM. Cells were harvested 2 days after treatment.
Cardiomyocytes were fixed with 4% PFA and blocked in 2.5% BSA in PBS including 0.1% Triton. Next NRVCMs were incubated with monoclonal mouse anti-α-actinin (1:200 in 2.5% BSA in PBS; Sigma) antibody for 1 hour at room temperature. After washing with PBS, secondary antibody conjugated to Alexa Fluor-546 (Thermo Fisher Scientific) together with nuclear stain DAPI (Sigma-Aldrich) at a dilution of 1:200 or 1:1000 respectively in 2.5% BSA in PBS were applied and incubated for 1 h. Afterwards, coverslips were mounted using FluorPreserve reagent (Merck Millipore). Florescence graphs were collected with Keyence fluorescence microscope BZ-9000 at ×10 magnification (objective: CFI Plan Apochromat λ×10; Nikon) and BZ-II viewer software (Keyence, version 2.1). 10 pictures were taken from each coverslip. BZ-II Analyzer (version 2.1) were used to process and analyze the graphs. HybridCellCount module and fluorescence intensity singe-extraction mode were applied for cell size measurement.

[2] = test system: primary rat neonatal fibroblasts; assay: L-2HG on fibroblast proliferation and collagen synthesis; format: cell-based; settings: disodium salt; for collagen3a1 expression: Western blot, non-treated fibroblasts as control; for fibroblast proliferation, Ki67-positive nuclei: immunocytochemistry
NRVCMs [3] = assay: Pro-hypertrophic effects of 2-HG on NRVCMs (cell size, ANP and BNP mRNA); format: cell-based, rat; settings: 2 days
Experimental: as §1
NRVCMs were isolated and prepared as published previously (Rangrez et al. 2013). […]
Cardiomyocytes were fixed with 4% PFA and blocked in 2.5% BSA in PBS including 0.1% Triton. […] Florescence graphs were collected with Keyence fluorescence microscope BZ-9000 at ×10 magnification (objective: CFI Plan Apochromat λ×10; Nikon) and BZ-II viewer software (Keyence, version 2.1). […] HybridCellCount module and fluorescence intensity singe-extraction mode were applied for cell size measurement.

NRVCMs [4] = assay: Mitochondrial membrane potential (TMRE) in NRVCMs; format: cell-based, rat; settings: L-2HG treatment, live cell monitoring
Experimental: In additional experiments, […] were transduced with AAV6 vectors, either overexpressing L2HGDH or luciferase (Luc) as control at the M01=10^5 vp/cell. Three days after transduction L-2HG (Sigma-Aldrich) was applied to cell culture medium to a final concentration of 2 mM. Cells were harvested 2 days after treatment. […] were maintained in μ-Slide 8-wells, (Ibidi), suitable for live cell imaging. Cells were incubated with tetramethylrhodamine (TMRE) at 37° C. to a concentration of 50 nmol/L for 30 min. Afterwards, cells were washed with warm PBS and media was replaced with FluoroBrite DMEM (Thermo Fischer Scientific). Cells were imaged within 30 min (Ex: 549; Em: 574 nm).

Tet2 = biological target: T1, Tet2 (Rattus norvegicus, UniProt A0ABK0LWH5); assay: Assessment of hydroxymethylation status of cytosine (5mC-Hydroxylase TET activity kit) after 2-HG treatment; format: cell-based; settings: nuclear extracts of NRVCMs after 2-HG treatment
T1 construct: nuclear extracts isolated from NRVCMs; endogenous in cells; host or cells: primary neonatal rat ventricular cardiomyocytes (NRVCMs), nuclear extract
T1 sequence (A0ABK0LWH5 1-1959): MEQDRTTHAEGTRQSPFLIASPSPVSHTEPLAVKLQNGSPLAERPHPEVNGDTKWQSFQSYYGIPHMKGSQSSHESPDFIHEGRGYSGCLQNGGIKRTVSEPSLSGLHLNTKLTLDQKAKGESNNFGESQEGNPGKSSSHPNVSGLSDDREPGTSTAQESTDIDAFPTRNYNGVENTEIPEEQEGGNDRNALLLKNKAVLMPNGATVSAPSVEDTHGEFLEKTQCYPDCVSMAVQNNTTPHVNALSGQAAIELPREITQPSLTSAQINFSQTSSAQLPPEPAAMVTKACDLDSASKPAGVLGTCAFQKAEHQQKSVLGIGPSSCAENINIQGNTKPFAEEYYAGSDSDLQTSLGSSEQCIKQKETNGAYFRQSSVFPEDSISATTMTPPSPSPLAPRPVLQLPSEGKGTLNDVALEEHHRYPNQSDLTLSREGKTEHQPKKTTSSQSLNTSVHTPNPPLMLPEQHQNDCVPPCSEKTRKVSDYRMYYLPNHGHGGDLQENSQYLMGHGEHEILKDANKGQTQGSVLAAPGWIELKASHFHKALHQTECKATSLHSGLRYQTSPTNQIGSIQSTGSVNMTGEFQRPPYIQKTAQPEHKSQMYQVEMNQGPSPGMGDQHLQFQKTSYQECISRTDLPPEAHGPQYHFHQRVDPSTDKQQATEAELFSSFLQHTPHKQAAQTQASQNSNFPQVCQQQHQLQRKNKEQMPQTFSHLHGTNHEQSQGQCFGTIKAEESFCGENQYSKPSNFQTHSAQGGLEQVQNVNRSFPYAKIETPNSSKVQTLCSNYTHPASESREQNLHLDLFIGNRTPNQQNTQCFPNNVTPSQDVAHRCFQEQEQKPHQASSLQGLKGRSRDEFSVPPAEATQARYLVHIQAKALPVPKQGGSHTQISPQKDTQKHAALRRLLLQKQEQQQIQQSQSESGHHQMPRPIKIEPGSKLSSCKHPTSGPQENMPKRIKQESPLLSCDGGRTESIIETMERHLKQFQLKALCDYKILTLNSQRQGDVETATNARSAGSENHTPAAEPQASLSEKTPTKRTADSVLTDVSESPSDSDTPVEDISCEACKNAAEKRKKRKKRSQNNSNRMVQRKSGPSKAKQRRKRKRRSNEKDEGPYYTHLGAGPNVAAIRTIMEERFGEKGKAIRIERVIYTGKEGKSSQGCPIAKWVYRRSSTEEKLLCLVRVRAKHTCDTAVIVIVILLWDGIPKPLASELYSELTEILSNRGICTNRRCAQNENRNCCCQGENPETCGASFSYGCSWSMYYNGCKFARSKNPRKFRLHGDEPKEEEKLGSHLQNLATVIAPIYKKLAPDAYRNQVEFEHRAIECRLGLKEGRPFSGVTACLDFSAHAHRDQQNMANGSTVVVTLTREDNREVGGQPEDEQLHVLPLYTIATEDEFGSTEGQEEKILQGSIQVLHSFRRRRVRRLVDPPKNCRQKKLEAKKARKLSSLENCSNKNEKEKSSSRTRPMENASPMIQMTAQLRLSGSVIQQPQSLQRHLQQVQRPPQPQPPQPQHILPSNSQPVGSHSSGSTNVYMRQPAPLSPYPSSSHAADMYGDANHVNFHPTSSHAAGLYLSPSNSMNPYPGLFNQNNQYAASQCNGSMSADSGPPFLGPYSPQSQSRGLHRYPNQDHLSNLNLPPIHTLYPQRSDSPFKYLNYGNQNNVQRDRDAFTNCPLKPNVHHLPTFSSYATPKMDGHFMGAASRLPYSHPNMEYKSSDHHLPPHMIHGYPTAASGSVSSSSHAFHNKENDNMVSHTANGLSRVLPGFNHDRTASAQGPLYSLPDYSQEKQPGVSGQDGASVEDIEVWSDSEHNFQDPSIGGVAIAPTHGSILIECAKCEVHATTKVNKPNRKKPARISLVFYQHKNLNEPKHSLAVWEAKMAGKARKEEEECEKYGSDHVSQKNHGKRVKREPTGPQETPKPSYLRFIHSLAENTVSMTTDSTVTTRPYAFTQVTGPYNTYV
Experimental: Epigenase 5mC-Hydroxylase TET Activity/Inhibition Assay Kit was employed to analyse Tet2 activity in nuclear extracts isolated from NRVCMs after 2-HG treatment. Cell fractionation was performed according to standard REAP protocol (Suzuki et al. 2010). The measurement of hydroxymethylcytosine (hmC) amount was performed according to manufacturer's instructions. 50 μg of nuclear protein was used per sample.

NRVCMs [5] = assay: Mitochondrial membrane potential (JC-1) in NRVCMs; format: cell-based, rat; settings: 2HG treatment
Experimental: In additional experiments, […] were transduced with AAV6 vectors, either overexpressing L2HGDH or luciferase (Luc) as control at the M01=10^5 vp/cell. Three days after transduction L-2HG (Sigma-Aldrich) was applied to cell culture medium to a final concentration of 2 mM. Cells were harvested 2 days after treatment. Similarly, JC-1 was applied to cell culture medium to a concentration of 1 μmol/L and cells were incubated at 37° C. for 30 min. After washing with warm PBS, cells were imaged in FluoroBrite DMEM (J-monomers Ex:485; Em:535/J-aggregates Ex: 530; Em:590) using a confocal microscope (LSM800, Zeiss). Mean fluorescence intensity was analysed using ImageJ.

L2HGDH = assay: Gene expression analysis of L2HGDH in Ang-II infusion mice model; format: in vivo; settings: Ang-II infusion mice vs controls
Experimental: as §1

[6] = test system: primary neonatal rat ventricular cardiomyocytes (NRVCMs); assay: Measurement of mitochondrial ROS production with MitoSOX in NRVCM; format: cell-based; settings: ET-1 stimulation 200 μmol/l for 24 hours, compared to control
Experimental: NRVCMs were isolated and prepared as published previously (Rangrez et al. 2013). Briefly, left ventricles from 1-2 days old Wistar rats (Charles River) were harvested and cut in pH 7.4 buffer containing 120 mmol/liter NaCl, 20 mmol/liter Hepes, 8 mmol/liter NaH2PO4, 6 mmol/liter glucose, 5 mmol/liter KCl, and 0.8 mmol/liter MgSO4. The separation of single cardiomyocyte from cut tissue mass, was achieved by enzymatic digestion with 0.6 mg/ml pancreatin (Sigma) at 37° C. and 0.5 mg/ml collagenase type 11 (Worthington). Cell suspension was filtered by a cell strainer. Newborn calf serum was added to stop enzymatic digestion. In order to separate cardiomyocytes from fibroblasts, a Percoll gradient (GE Healthcare) centrifugation step was performed. Afterwards, cardiomyocytes were cultured in DMEM medium containing 10% fetal calf serum (FCS), 2 mM penicillin/streptomycin, and L-glutamine (PAA Laboratories). […]
MitoSOX was applied to culture medium to a final concentration of 0.5 μM and cells were incubated for 15 minutes at 37° C. […] The fluorescence (red) was detected (Ex: 400 nm, Em at 590 nm) using confocal microscopy (Zeiss LSM 800). Mean fluorescence intensity (MFI) was calculated from the total fluorescence intensity detected from viable cells and divided by the number of cells using the software generated by Image J software (NIH, Bethesda, Md., USA).

O=C([O-])CC[C@H](O)C(=O)[O-].[Na+].[Na+] [2-HG, L-α-Hydroxyglutaric acid disodium salt]
cell size (NRVCMs [1]): increased
mRNA levels of pro-hypertrophic markers (NRVCMs [1]): increased
induction of hypertrophy in NRVCMs (NRVCMs [1]; disodium salt): marked induction; also recorded: pro-hypertrophic
collagen3a1 expression [2]: induces
collagen3a1 expression ([2]; listed as L-2HG): significant increased
fibroblast proliferation, Ki67-positive nuclei [2]: induces
fibroblast proliferation, Ki67-positive nuclei ([2]; listed as L-2HG): dramatic increased
cell size (NRVCMs [3]; 2-HG 2 mM in serum-free medium, vs non-treated cells): dramatic increase
fetal gene program, ANP and BNP mRNA (NRVCMs [3]; 2-HG 2 mM): marked increase
TMRE fluorescence (mitochondrial membrane potential) (NRVCMs [4]): time-dependent decrease
epigenetic 5-hmC deposition (Tet2): increased
JC-1 green/red mean fluorescence intensity (mitochondrial polarization) (NRVCMs [5]): mitochondrial depolarization

Ang-II: infused to give the Ang-II infusion mice model of cardiac hypertrophy (DRVYIHPF; Angiotensin-2; UniProt P01019 25-32, looked up)
down-regulation in L2HGDH mRNA level (L2HGDH): 35%

ET-1: hypertrophic stimulation applied to NRVCMs in serum-free medium (CSCSSLMDKECVYFCHLDIIW; disulfide 1-15, 3-11; ends not checked; UniProt P05305 53-73, looked up)
MitoSOX fluorescence level (ROS production) [6]: significant increase
